# Data: patent US20070128217A1 (priority 2003, published 2007)
# Columns and labels:
# [1] = tested on: antibodies in sera from SARS patients (sera 1a, 1b, 2, 6, 37, 62, London, SARS-yellow, SARS-green); assay type: binding, human; design: Binding of serum 6 to linear peptides of protein X1 of SARS-CoV Urbani / Binding of serum 37 to linear peptides of protein X1 of SARS-CoV Urbani / Binding of serum 6 to looped/cyclic peptide (PEPSCAN-ELISA) / Binding of serum 37 to looped/cyclic peptide (PEPSCAN-ELISA) / Binding of serum 37 to looped/cyclic peptides of protein X1 of SARS-CoV Urbani / Binding of serum 6 to linear peptides of protein X2 / Binding of serum 37 to linear peptides of protein X2 / Binding of serum 37 to looped/cyclic peptides of protein X2 of SARS-CoV Urbani / Binding of serum 6 to linear peptides of protein M of SARS-CoV Urbani / Binding of serum 37 to linear peptides of protein M of SARS-CoV Urbani / Binding of serum 6 to looped/cyclic peptides of protein M of SARS-CoV Urbani / Binding of serum 37 to looped/cyclic peptides of protein M of SARS-CoV Urbani / Binding of serum 6 to linear peptides of protein X3 of SARS-CoV Urbani / Binding of serum 37 to linear peptides of protein X3 of SARS-CoV Urbani / Binding of serum 37 to looped/cyclic peptides of protein X3 of SARS-CoV Urbani / Binding of serum 6 to linear peptides of protein X4 of SARS-CoV Urbani / Binding of serum 37 to linear peptides of protein X4 of SARS-CoV Urbani / Binding of serum 37 to looped/cyclic peptides of protein X4 of SARS-CoV Urbani / Binding of serum 6 to linear peptides of protein X5 of SARS-CoV Urbani / Binding of serum 37 to linear peptides of protein X5 of SARS-CoV Urbani / Binding of serum 37 to looped/cyclic peptides of protein X5 of SARS-CoV Urbani / Binding of serum 6 to linear peptides of protein N of SARS-CoV Urbani / Binding of serum 37 to linear peptides of protein N of SARS-CoV Urbani / Binding of serum 6 to linear peptide (PEPSCAN-ELISA) / Binding of serum 1a to looped/cyclic peptides of protein N of SARS-CoV Urbani / Binding of serum 1b to looped/cyclic peptides of protein N of SARS-CoV Urbani / Binding of serum 2 to looped/cyclic peptides of protein N of SARS-CoV Urbani / Binding of serum 6 to looped/cyclic peptides of protein N of SARS-CoV Urbani / Binding of serum 37 to looped/cyclic peptides of protein N of SARS-CoV Urbani / Binding of serum 62 to looped/cyclic peptides of protein N of SARS-CoV Urbani / Binding of serum London to looped/cyclic peptides of protein N of SARS-CoV Urbani / Binding of serum SARS-green to looped/cyclic peptides of protein N of SARS-CoV Urbani: unit not given here
# [2] = tested on: control sera (pooled serum of ten healthy LUMC hospital workers; commercial negative donor pooled serum from the Dutch bloodbank); assay type: binding, human; design: Binding of Control serum LUMC to linear peptides / Binding of Control serum Blood-bank to linear peptides / Binding of Control serum LUMC to looped peptides / Binding of Control Serum Blood-Bank to Looped peptides / Binding of Control serum LUMC to linear peptides of the protein M of SARS-CoV Urbani / Binding of Control serum Blood-bank to linear peptides of the protein M of SARS-CoV Urbani / Binding of Control serum LUMC to looped peptides of the protein M of SARS-CoV Urbani / Binding of Control Serum Blood-Bank to Looped peptides of the protein M of SARS-CoV Urbani: unit not given here
# [3] = tested on: rabbit serum obtained by immunizing a rabbit with the SARS-CoV strain Frankfurt 1; assay type: binding; design: Binding of a rabbit serum to linear peptides / Binding of a rabbit serum to looped peptides / Rabbit serum linear peptides / Rabbit serum looped peptides / Binding of a rabbit serum to linear peptides of protein N of SARS-CoV Urbani (Rabbit serum linear peptides) / Binding of a rabbit serum to looped/cyclic peptides of protein N of SARS-CoV Urbani (Rabbit serum looped peptides): unit not given here
sequence,measurement,setting,value
FLAWIMLLQFAYSNR,Binding of serum 1a to linear peptides of protein M of SARS-CoV Urbani,[1],0.7
same,Binding of serum 1a to looped/cyclic peptides of protein M of SARS-CoV Urbani,[1],0.8
same,Binding of serum 1b to linear peptides of protein M of SARS-CoV Urbani,[1],0.6
same,Binding of serum 1b to looped/cyclic peptides of protein M of SARS-CoV Urbani,[1],0.8
same,Binding of serum 2 to linear peptides of protein M of SARS-CoV Urbani,[1],0.5
same,Binding of serum 2 to looped/cyclic peptides of protein M of SARS-CoV Urbani,[1],0.6
same,Binding of serum 6 to linear peptides of protein M of SARS-CoV Urbani,[1],0.4
same,Binding of serum 6 to looped/cyclic peptides of protein M of SARS-CoV Urbani,[1],0.9
same,Binding of serum 37 to linear peptides of protein M of SARS-CoV Urbani,[1],0.4
same,Binding of serum 37 to looped/cyclic peptides of protein M of SARS-CoV Urbani,[1],0.7
same,Binding of serum 62 to linear peptides of protein M of SARS-CoV Urbani,[1],0.4
same,Binding of serum 62 to looped/cyclic peptides of protein M of SARS-CoV Urbani,[1],0.6
same,Binding of serum London to linear peptides of protein M of SARS-CoV Urbani,[1],0.4
same,Binding of serum London to looped/cyclic peptides of protein M of SARS-CoV Urbani,[1],0.7
same,Binding of serum SARS-green to linear peptides of protein M of SARS-CoV Urbani,[1],0.5
same,Binding of serum SARS-green to looped/cyclic peptides of protein M of SARS-CoV Urbani,[1],0.5
same,Binding of serum SARS-yellow to linear peptides of protein M of SARS-CoV Urbani,[1],0.2
same,Binding of serum SARS-yellow to looped/cyclic peptides of protein M of SARS-CoV Urbani,[1],0.7
same,Binding of Control Serum Blood-Bank to Looped peptides of the protein M of SARS-CoV Urbani,[2],0.8
same,Binding of Control serum Blood-bank to linear peptides of the protein M of SARS-CoV Urbani,[2],0.5
same,Binding of Control serum LUMC to linear peptides of the protein M of SARS-CoV Urbani,[2],0.5
same,Binding of Control serum LUMC to looped peptides of the protein M of SARS-CoV Urbani,[2],0.7
same,Rabbit serum linear peptides,[3],0.3
same,Rabbit serum looped peptides,[3],0.5
LSYFVASFRLFARTR,Binding of serum 1a to linear peptides of protein M of SARS-CoV Urbani,[1],0.7
same,Binding of serum 1b to linear peptides of protein M of SARS-CoV Urbani,[1],0.4
same,Binding of serum 2 to linear peptides of protein M of SARS-CoV Urbani,[1],0.4
same,Binding of serum 6 to linear peptides of protein M of SARS-CoV Urbani,[1],0.4
same,Binding of serum 37 to linear peptides of protein M of SARS-CoV Urbani,[1],0.6
same,Binding of serum 62 to linear peptides of protein M of SARS-CoV Urbani,[1],0.7
same,Binding of serum London to linear peptides of protein M of SARS-CoV Urbani,[1],0.3
same,Binding of serum SARS-green to linear peptides of protein M of SARS-CoV Urbani,[1],0.2
same,Binding of serum SARS-yellow to linear peptides of protein M of SARS-CoV Urbani,[1],0.1
same,"Recognition of the peptide by sera of SARS-CoV infected individuals, and form (linear, looped/cyclic) in which it is recognized",[1],recognized in looped/cyclic form
same,Binding of Control Serum Blood-Bank to Looped peptides of the protein M of SARS-CoV Urbani,[2],0.8
same,Binding of Control serum Blood-bank to linear peptides of the protein M of SARS-CoV Urbani,[2],0.6
same,Binding of Control serum LUMC to linear peptides of the protein M of SARS-CoV Urbani,[2],0.3
same,Binding of Control serum LUMC to looped peptides of the protein M of SARS-CoV Urbani,[2],1.0
same,Rabbit serum linear peptides,[3],0.4
same,Rabbit serum looped peptides,[3],0.6
VTIAEILIIIMRTFR,Binding of serum 1a to linear peptides of protein X3 of SARS-CoV Urbani,[1],0.7
same,Binding of serum 1a to looped/cyclic peptides of protein X3 of SARS-CoV Urbani,[1],0.7
same,Binding of serum 1b to linear peptides of protein X3 of SARS-CoV Urbani,[1],0.3
same,Binding of serum 1b to looped/cyclic peptides of protein X3 of SARS-CoV Urbani,[1],0.4
same,Binding of serum 2 to linear peptides of protein X3 of SARS-CoV Urbani,[1],0.7
same,Binding of serum 2 to looped/cyclic peptides of protein X3 of SARS-CoV Urbani,[1],0.7
same,Binding of serum 6 to linear peptides of protein X3 of SARS-CoV Urbani,[1],0.7
same,Binding of serum 6 to looped/cyclic peptides of protein X3 of SARS-CoV Urbani,[1],0.7
same,Binding of serum 37 to linear peptides of protein X3 of SARS-CoV Urbani,[1],0.4
same,Binding of serum 37 to looped/cyclic peptides of protein X3 of SARS-CoV Urbani,[1],0.6
same,Binding of serum 62 to linear peptides of protein X3 of SARS-CoV Urbani,[1],0.6
same,Binding of serum 62 to looped/cyclic peptides of protein X3 of SARS-CoV Urbani,[1],0.5
same,Binding of serum London to linear peptides of protein X3 of SARS-CoV Urbani,[1],0.6
same,Binding of serum London to looped/cyclic peptides of protein X3 of SARS-CoV Urbani,[1],0.3
same,Binding of serum SARS-green to linear peptides of protein X3 of SARS-CoV Urbani,[1],0.5
same,Binding of serum SARS-green to looped/cyclic peptides of protein X3 of SARS-CoV Urbani,[1],0.2
same,Binding of serum SARS-yellow to linear peptides of protein X3 of SARS-CoV Urbani,[1],0.3
same,Binding of serum SARS-yellow to looped/cyclic peptides of protein X3 of SARS-CoV Urbani,[1],0.6
same,Binding of Control Serum Blood-Bank to Looped peptides of the protein X3 of SARS-CoV Urbani,[2],0.8
same,Binding of Control serum Blood-bank to linear peptides of the protein X3 of SARS-CoV Urbani,[2],0.8
same,Binding of Control serum LUMC to linear peptides of the protein X3 of SARS-CoV Urbani,[2],0.6
same,Binding of Control serum LUMC to looped peptides of the protein X3 of SARS-CoV Urbani,[2],0.8
same,Rabbit serum linear peptides,[3],0.2
same,Rabbit serum looped peptides,[3],0.4
